In US7816522B2, “Triazolone derivatives” (Eisai Co., Ltd., priority 2006, dated 2010):

These molecules were tested against T1, human clotting factor VIIa (Homo sapiens, UniProt P08709) (assay: Inhibitory activity against clotting factor VIIa (chromogenic substrate Spectrozyme FVIIa, TF/Factor VIIa enzyme solution)). Conditions: human Factor VIIa 5 nmol/L with human TF 10 nmol/L, room temperature 40 minutes, 405 nm.
T1 construct: a human clotting factor VIIa (hereinafter, “Factor VIIa”) purified sample; purchased Enzyme Research Laboratories HFVIIa
T1 sequence (P08709 213-466 limits assumed): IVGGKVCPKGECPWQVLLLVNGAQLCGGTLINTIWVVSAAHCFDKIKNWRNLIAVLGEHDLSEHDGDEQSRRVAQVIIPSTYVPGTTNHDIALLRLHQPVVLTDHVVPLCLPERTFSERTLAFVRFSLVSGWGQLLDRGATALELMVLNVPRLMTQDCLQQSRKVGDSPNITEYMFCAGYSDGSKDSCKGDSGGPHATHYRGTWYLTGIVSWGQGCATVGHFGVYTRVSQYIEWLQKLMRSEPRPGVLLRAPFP
T1 sequence (P08709 61-212 limits assumed): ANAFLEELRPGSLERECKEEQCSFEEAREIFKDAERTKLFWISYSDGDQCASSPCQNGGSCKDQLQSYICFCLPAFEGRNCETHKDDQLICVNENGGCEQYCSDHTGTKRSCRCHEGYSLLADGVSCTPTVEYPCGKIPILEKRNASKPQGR
T1 sequence (P13726 33-295 partner): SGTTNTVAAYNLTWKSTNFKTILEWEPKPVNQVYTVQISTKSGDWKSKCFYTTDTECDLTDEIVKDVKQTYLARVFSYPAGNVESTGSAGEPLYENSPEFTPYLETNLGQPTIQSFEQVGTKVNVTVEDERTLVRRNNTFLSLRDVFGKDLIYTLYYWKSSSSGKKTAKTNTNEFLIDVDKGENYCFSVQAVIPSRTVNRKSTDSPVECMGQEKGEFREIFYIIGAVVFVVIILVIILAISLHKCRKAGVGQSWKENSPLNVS
Type: biochemical
Protocol: [Inhibitory Activity Against Clotting Factor VIIa]
Dimethylsulfoxide (DMSO) solutions were prepared with compounds of the invention at concentration of 10 mmol/L (10 mmol/L compound solutions).
One packet of tris-hydroxymethylaminomethane-preset (hereinafter referred to as “Tris preset”) (Product of Sigma Corp., Catalog No. T8293), 8.8 g of sodium chloride (NaCl) and 1 g of bovine serum albumin (hereinafter abbreviated as “BSA”) were dissolved in 1 L of water to prepare a Tris-BSA buffer (100 mmol/L Tris, 0.15 mol/L NaCl, 0.1% BSA, pH 7.4).
This Tris-BSA buffer (180 μL) was added to the aforementioned 10 mmol/L compound solution (20 μL). A 10-fold dilution series was prepared for this mixture using the aforementioned Tris-BSA buffer, and solutions with the compound at concentrations of 1.0 mmol/L, 100, 10, 1, 0.1, 0.01 and 0.001 μmol/L were prepared (1.0 mmol-0.001 μmol/L compound solutions). As a control, a solution was prepared by 10-fold dilution of DMSO with the Tris-BSA buffer (hereinafter referred to as “control 10% solution”).
After dissolving one packet of Tris preset, NaCl (8.8 g) and BSA (1 g) in water (about 900 mL), there were added 1 mol/L aqueous calcium chloride (CaCl2) (15 mL) and 1 mg/mL aqueous cephalin (30 mL), and the total volume was brought to 1 L by adding water. To this solution there was added a human tissue factor (hereinafter, “TF”) sample (product of Calbiochem, Catalog No. 612151) (450 μg) to a TF sample concentration of 10 nmol/L, and then a human clotting factor VIIa (hereinafter, “Factor VIIa”) purified sample (product of Enzyme Research Laboratories, Catalog No. HFVIIa) (250 μg) was added to a Factor VIIa purified sample concentration of 5 nmol/L, to prepare an enzyme solution (100 mmol/L Tris-HCl, 0.15 mol/L NaCl, 15 mmol/L CaCl2, 30 μg/mL cephalin, 1 mg/mL BSA, 10 nmol/L TF, 5 nmol/L Factor VIIa).
To 110 μL of this enzyme solution there was added 15 μL of each of the 1.0 mmol-0.001 μmol/L compound solutions, and then 25 μL of a 1.0 mmol/L synthetic chromogenic substrate solution (Spectrozyme FVIIa, product of American Diagnostica, Catalog No. 217L) was added and the mixture was allowed to stand at room temperature for 40 minutes. Next, the amount of 4-nitroanilide released into the solution was quantitated by spectrophotometry (405 nm).
A control measurement was conducted in the same manner, using the control 10% solution instead of the compound solution.
This measurement yielded the enzyme reaction inhibition in the presence of 100 μmol/L to 0.1 nmol/L of each compound of the invention.
The enzyme reaction inhibition at each compound concentration was subjected to non-linear regression analysis, and the IC50 value for inhibitory activity of each compound against clotting factor VIIa was calculated.

Question: Which IC50 does the source give for `C=Cc1cc(OCCO)cc(C(Nc2ccc(C(=N)N)cc2)c2nn(-c3ncccn3)c(=O)[nH]2)c1` (racemic) [Example 46, (R) and (S)-4-({[3-(2-hydroxyethoxy)-5-vinylphenyl]-(5-oxo-1-pyrimidin-2-yl-4,5-dihydro-1H-[1,2,4]triazol-3-yl)methyl}amino)benzamidine acetate] here?
Answer: 3.8 nM

Question: `C=Cc1cc(O)cc(C(Nc2ccc(C(=N)N)cc2)c2nn(-c3ncccn3)c(=O)[nH]2)c1` (racemic) [Example 47, 4-{[(3-hydroxy-5-vinylphenyl)-(5-oxo-1-pyrimidin-2-yl-4,5-dihydro-1H-[1,2,4]triazol-3-yl)methyl]amino}benzamidine] was tested. Which IC50 did it give?
Answer: 8.9 nM

Question: For `COc1cc(OCCF)c(F)c(C(Nc2ccc(C(=N)N)cc2)c2nn(-c3cccnc3N)c(=O)[nH]2)c1` (racemic) [Example 50, (R) and (S)-4-({[1-(2-aminopyridin-3-yl)-5-oxo-4,5-dihydro-1H-[1,2,4]triazol-3-yl]-[2-fluoro-3-(2-fluoroethoxy)-5-methoxyphenyl]methyl}amino)benzamidine diacetate], which IC50 is on record?
Answer: 3.2 nM

Question: With `COc1cc(C(Nc2ccc(C(=N)N)cc2)c2nn(-c3ncccc3N)c(=O)[nH]2)c(F)c2c1OCC2` (racemic) [Example 52, (R) and (S)-4-({[1-(3-aminopyridin-2-yl)-5-oxo-4,5-dihydro-1H-[1,2,4]triazol-3-yl]-(4-fluoro-7-methoxy-2,3-dihydrobenzofuran-5-yl)methyl}amino)benzamidine diacetate] as the molecule, how does the IC50 read?
Answer: 5.2 nM

Question: Which IC50 does the source give for `COc1cc(C(Nc2ccc(C(=N)N)cc2)c2nn(-c3ncccn3)c(=O)[nH]2)ccc1OCF` (racemic) [Example 53, (R) and (S)-4-{[(4-fluoromethoxy-3-methoxyphenyl)-(5-oxo-1-pyrimidin-2-yl-4,5-dihydro-1H-[1,2,4]triazol-3-yl)methyl]amino}benzamidine acetate] here?
Answer: 10.6 nM

Question: How did the IC50 turn out when `COc1cc(C(Nc2ccc(C(=N)N)cc2)c2nn(-c3ncccn3)c(=O)[nH]2)cc(OC)n1` (racemic) [Example 54, (R) and (S)-4-{[(2,6-dimethoxypyridin-4-yl)-(5-oxo-1-pyrimidin-2-yl-4,5-dihydro-1H-[1,2,4]triazol-3-yl)methyl]amino}benzamidine acetate] was run?
Answer: 18.7 nM

Question: Which IC50 does the source give for `COc1cc(C(Nc2ccc(C(=N)N)cc2)c2nn(-c3ncccc3N)c(=O)[nH]2)cc(OC)n1` (racemic) [Example 55, (R) and (S)-4-({[1-(3-aminopyridin-2-yl)-5-oxo-4,5-dihydro-1H-[1,2,4]triazol-3-yl]-(2,6-dimethoxypyridin-4-yl)methyl}amino)benzamidine acetate] here?
Answer: 10.3 nM

Question: Which IC50 does the source give for `COc1cc(C(Nc2ccc(C(=N)N)cc2)c2nn(-c3ncccc3F)c(=O)[nH]2)cc(OC)n1` (racemic) [Example 56, (R) and (S)-4-{[(2,6-dimethoxypyridin-4-yl)-[1-(3-fluoropyridin-2-yl)-5-oxo-4,5-dihydro-1H-[1,2,4]triazol-3-yl)methyl]amino}benzamidine acetate] here?
Answer: 11.2 nM

Question: `Cc1cc(O[C@H]2CCOC2)cc(C(Nc2ccc(C(=N)N)cc2)c2nn(-c3ncccn3)c(=O)[nH]2)c1` (mixture of isomers) [Example 58, 4-[((R) and (S)-{3-methyl-5-[(S)-(tetrahydrofuran-3-yl)oxy]phenyl}-(5-oxo-1-pyrimidin-2-yl-4,5-dihydro-1H-[1,2,4]triazol-3-yl)methyl)amino]benzamidine acetate] was tested. Which IC50 did it give?
Answer: 3.4 nM

Question: Which IC50 does the source give for `Cc1cc(O[C@@H]2CCOC2)cc(C(Nc2ccc(C(=N)N)cc2)c2nn(-c3ncccn3)c(=O)[nH]2)c1` (mixture of isomers) [Example 59, 4-[((R) and (S)-{3-methyl-5-[(R)-(tetrahydrofuran-3-yl)oxy]phenyl}-(5-oxo-1-pyrimidin-2-yl-4,5-dihydro-1H-[1,2,4]triazol-3-yl)methyl)amino]benzamidine acetate] here?
Answer: 4.5 nM

Question: `Cc1cc(OC2CCOCC2)cc(C(Nc2ccc(C(=N)N)cc2)c2nn(-c3ncccn3)c(=O)[nH]2)c1` (racemic) [Example 60, (R) and (S)-4-({[3-methyl-5-(tetrahydropyran-4-yloxy)phenyl]-(5-oxo-1-pyrimidin-2-yl-4,5-dihydro-1H-[1,2,4]triazol-3-yl)methyl}amino)benzamidine acetate] was tested. Which IC50 did it give?
Answer: 3.7 nM

Question: With `COc1cc(OCCF)cc(C(Nc2ccc(C(=N)N)cc2)c2nn(-c3ncccn3)c(=O)[nH]2)c1` (racemic) [Example 61, (R) and (S)-4-({[3-(2-fluoroethoxy)-5-methoxyphenyl]-(5-oxo-1-pyrimidin-2-yl-4,5-dihydro-1H-[1,2,4]triazol-3-yl)methyl}amino)benzamidine acetate] as the molecule, how does the IC50 read?
Answer: 5.6 nM

Question: `COc1cc(OCC(=O)N(C)C)cc(C(Nc2ccc(C(=N)N)cc2)c2nn(-c3ncccn3)c(=O)[nH]2)c1` (racemic) [Example 62, (R) and (S)-2-{3-[(4-carbamimidoylphenylamino)-(5-oxo-1-pyrimidin-2-yl-4,5-dihydro-1H-[1,2,4]triazol-3-yl)methyl]-5-methoxyphenoxy}-N,N-dimethylacetamide acetate] was tested. Which IC50 did it give?
Answer: 24.4 nM

Question: `COc1cc(OC2CCOCC2)cc(C(Nc2ccc(C(=N)N)cc2)c2nn(-c3ncccn3)c(=O)[nH]2)c1` (racemic) [Example 63, (R) and (S)-4-({[3-methoxy-5-(tetrahydropyran-4-yloxy)phenyl]-(5-oxo-1-pyrimidin-2-yl-4,5-dihydro-1H-[1,2,4]triazol-3-yl)methyl}amino)benzamidine acetate] was tested. Which IC50 did it give?
Answer: 3.9 nM

Question: Which IC50 does the source give for `COc1cc(OCCF)cc(C(Nc2ccc(C(=N)N)cc2)c2nn(-c3cccnn3)c(=O)[nH]2)c1` (racemic) [Example 64, (R) and (S)-4-({[3-(2-fluoroethoxy)-5-methoxyphenyl]-(5-oxo-1-pyridazin-3-yl-4,5-dihydro-1H-[1,2,4]triazol-3-yl)methyl}amino)benzamidine acetate] here?
Answer: 4.2 nM

Question: For `CCOc1cc(OC)cc(C(Nc2ccc(C(=N)N)cc2)c2nn(-c3cccnn3)c(=O)[nH]2)c1` (racemic) [Example 65, (R) and (S)-4-{[(3-ethoxy-5-methoxyphenyl)-(5-oxo-1-pyridazin-3-yl-4,5-dihydro-1H-[1,2,4]triazol-3-yl)methyl]amino}benzamidine acetate], which IC50 is on record?
Answer: 5.3 nM

Question: `COc1cc(OC)c(F)c(C(Nc2ccc(C(=N)N)cc2)c2nn(-c3ncccn3)c(=O)[nH]2)c1` (racemic) [Example 66, (R) and (S)-4-{[(2-fluoro-3,5-dimethoxyphenyl)-(5-oxo-1-pyrimidin-2-yl-4,5-dihydro-1H-[1,2,4]triazol-3-yl)methyl]amino}benzamidine acetate] was tested. Which IC50 did it give?
Answer: 7.9 nM

Question: `COc1cc(C(Nc2ccc(C(=N)N)cc2)c2nn(-c3ncccn3)c(=O)[nH]2)c(F)c(OC)c1OC` (racemic) [Example 67, (R) and (S)-4-{[(2-fluoro-3,4,5-trimethoxyphenyl)-(5-oxo-1-pyrimidin-2-yl-4,5-dihydro-1H-[1,2,4]triazol-3-yl)methyl]amino}benzamidine acetate] was tested. Which IC50 did it give?
Answer: 4.5 nM

Question: For `CCOc1cc(OCCF)c(F)c(C(Nc2ccc(C(=N)N)cc2)c2nn(-c3ncccn3)c(=O)[nH]2)c1` (racemic) [Example 68, (R) and (S)-4-({[2-fluoro-3-(2-fluoroethoxy)-5-ethoxyphenyl]-(5-oxo-1-pyrimidin-2-yl-4,5-dihydro-1H-[1,2,4]triazol-3-yl)methyl}amino)benzamidine acetate], which IC50 is on record?
Answer: 6.7 nM

Question: Which IC50 does the source give for `CCOc1cc(OC)c(F)c(C(Nc2ccc(C(=N)N)cc2)c2nn(-c3ncccn3)c(=O)[nH]2)c1` (racemic) [Example 69, (R) and (S)-4-{[(5-ethoxy-2-fluoro-3-methoxyphenyl)-(5-oxo-1-pyrimidin-2-yl-4,5-dihydro-1H-[1,2,4]triazol-3-yl)methyl]amino}benzamidine acetate] here?
Answer: 15.1 nM

Question: For `CCOc1cc(OCCF)c(F)c(C(Nc2ccc(C(=N)N)cc2)c2nn(-c3cccnn3)c(=O)[nH]2)c1` (racemic) [Example 70, 4-({(R) and (S)-[5-ethoxy-2-fluoro-3-(2-fluoroethoxy)phenyl]-(5-oxo-1-pyridazin-3-yl-4,5-dihydro-1H-[1,2,4]triazol-3-yl)methyl}amino)benzamidine acetate], which IC50 is on record?
Answer: 4.9 nM
